Results reported in ChEMBL document CHEMBL4308841, “Synthesis, in vitro antiproliferative activity, and kinase inhibitory effects of pyrazole-containing diarylureas and diarylamides” (Eur J Med Chem, 2018).

Experiments:
K562 = test: Growth inhibition of human K562 cells incubated for 48 hrs by sulforhodamine B assay; assay type: functional, cell-based; conditions: K562, 48 h
NCI-H522 = test: Growth inhibition of human NCI-H522 cells incubated for 48 hrs by sulforhodamine B assay; assay type: functional, cell-based; conditions: NCI-H522, 48 h
COLO 205 = test: Growth inhibition of human COLO205 cells incubated for 48 hrs by sulforhodamine B assay; assay type: functional, cell-based; conditions: COLO 205, 48 h
SF-268 [1] = test: Growth inhibition of human SF268 cells incubated for 48 hrs by sulforhodamine B assay; assay type: functional, cell-based; conditions: SF-268, 48 h
UACC-62 [2] = test: Growth inhibition of human UACC62 cells incubated for 48 hrs by sulforhodamine B assay; assay type: functional, cell-based; conditions: UACC-62, 48 h
OVCAR-4 [3] = test: Growth inhibition of human OVCAR4 cells incubated for 48 hrs by sulforhodamine B assay; assay type: functional, cell-based; conditions: OVCAR-4, 48 h
OVCAR-5 [4] = test: Growth inhibition of human OVCAR5 cells incubated for 48 hrs by sulforhodamine B assay; assay type: functional, cell-based; conditions: OVCAR-5, 48 h
CCRF-CEM [5] = test: Growth inhibition of human CCRF-CEM cells assessed as cell growth at 0.01 uM incubated for 48 hrs by sulforhodamine B assay relative to control; assay type: functional; conditions: read-out: Activity
M14 = test: Growth inhibition of human M14 cells assessed as cell growth at 0.01 uM incubated for 48 hrs by sulforhodamine B assay relative to control; assay type: functional; conditions: M14, 48 h, read-out: Activity
UACC-62 [6] = test: Growth inhibition of human UACC62 cells assessed as cell growth at 0.01 uM incubated for 48 hrs by sulforhodamine B assay relative to control; assay type: functional; conditions: UACC-62, 48 h, read-out: Activity
PC-3 = test: Growth inhibition of human PC3 cells assessed as cell growth at 0.01 uM incubated for 48 hrs by sulforhodamine B assay relative to control; assay type: functional; conditions: PC-3, 48 h, read-out: Activity
BT-549 = test: Growth inhibition of human BT549 cells assessed as cell growth at 0.01 uM incubated for 48 hrs by sulforhodamine B assay relative to control; assay type: functional; conditions: BT-549, 48 h, read-out: Activity
RPMI-8226 = test: Growth inhibition of human RPMI8226 cells assessed as cell growth at 0.1 uM incubated for 48 hrs by sulforhodamine B assay relative to control; assay type: functional; conditions: RPMI-8226, 48 h, read-out: Activity
U-251 [7] = test: Growth inhibition of human U251 cells assessed as cell growth at 0.1 uM incubated for 48 hrs by sulforhodamine B assay relative to control; assay type: functional; conditions: U-251, 48 h, read-out: Activity
LOX IMVI = test: Growth inhibition of human LOXIMVI cells assessed as cell growth at 0.1 uM incubated for 48 hrs by sulforhodamine B assay relative to control; assay type: functional; conditions: read-out: Activity
Malme-3M = test: Growth inhibition of human MALME-3M cells assessed as cell growth at 0.1 uM incubated for 48 hrs by sulforhodamine B assay relative to control; assay type: functional; conditions: read-out: Activity
SK-MEL-2 = test: Growth inhibition of human SK-MEL-2 cells assessed as cell growth at 0.1 uM incubated for 48 hrs by sulforhodamine B assay relative to control; assay type: functional; conditions: SK-MEL-2, 48 h, read-out: Activity
OVCAR-4 [8] = test: Growth inhibition of human OVCAR4 cells assessed as cell growth at 0.1 uM incubated for 48 hrs by sulforhodamine B assay relative to control; assay type: functional; conditions: OVCAR-4, 48 h, read-out: Activity
KM12 = test: Growth inhibition of human KM12 cells assessed as cell growth at 1 uM incubated for 48 hrs by sulforhodamine B assay relative to control; assay type: functional; conditions: KM12, 48 h, read-out: Activity
IGROV-1 = test: Growth inhibition of human IGROV1 cells assessed as cell growth at 1 uM incubated for 48 hrs by sulforhodamine B assay relative to control; assay type: functional; conditions: IGROV-1, 48 h, read-out: Activity
OVCAR-8 = test: Growth inhibition of human OVCAR8 cells assessed as cell growth at 1 uM incubated for 48 hrs by sulforhodamine B assay relative to control; assay type: functional; conditions: OVCAR-8, 48 h, read-out: Activity
CCRF-CEM [9] = test: Growth inhibition of human CCRF-CEM cells assessed as cell growth at 100 uM incubated for 48 hrs by sulforhodamine B assay relative to control; assay type: functional; conditions: read-out: Activity
HCT-116 = test: Growth inhibition of human HCT116 cells assessed as cell growth at 100 uM incubated for 48 hrs by sulforhodamine B assay relative to control; assay type: functional; conditions: HCT-116, 48 h, read-out: Activity
SF-268 [10] = test: Growth inhibition of human SF268 cells assessed as cell growth at 100 uM incubated for 48 hrs by sulforhodamine B assay relative to control; assay type: functional; conditions: SF-268, 48 h, read-out: Activity
SNB-19 = test: Growth inhibition of human SNB19 cells assessed as cell growth at 100 uM incubated for 48 hrs by sulforhodamine B assay relative to control; assay type: functional; conditions: SNB-19, 48 h, read-out: Activity
U-251 [11] = test: Growth inhibition of human U251 cells assessed as cell growth at 100 uM incubated for 48 hrs by sulforhodamine B assay relative to control; assay type: functional; conditions: U-251, 48 h, read-out: Activity
SK-MEL-28 = test: Growth inhibition of human SK-MEL-28 cells assessed as cell growth at 100 uM incubated for 48 hrs by sulforhodamine B assay relative to control; assay type: functional; conditions: SK-MEL-28, 48 h, read-out: Activity
UACC-62 [12] = test: Growth inhibition of human UACC62 cells assessed as cell growth at 100 uM incubated for 48 hrs by sulforhodamine B assay relative to control; assay type: functional; conditions: UACC-62, 48 h, read-out: Activity
OVCAR-5 [13] = test: Growth inhibition of human OVCAR5 cells assessed as cell growth at 100 uM incubated for 48 hrs by sulforhodamine B assay relative to control; assay type: functional; conditions: OVCAR-5, 48 h, read-out: Activity
[14] = read-out: LC50 (the source's name)
[15] = read-out: pLC50 (the source's name) (converted)

COc1cc(Cl)cc(-c2nn(-c3cccc(NC(=O)c4ccc(N5CCOCC5)c(C(F)(F)F)c4)c3)cc2-c2ccncc2)c1
GI50 (K562; read-out: GI50): 3.1 µM | LC50 (K562; read-out: LC50): > 100 µM | TGI (K562; read-out: TGI): > 100 µM | GI50 (K562; read-out: pGI50 (converted)): 3.09 µM | LC50 (K562; read-out: pLC50 (converted)): > 100 µM | TGI (K562; read-out: pTGI (converted)): > 100 µM | GI50 (NCI-H522; read-out: GI50): 4.72 µM | CC50 (NCI-H522; [14]): > 100 µM | TGI (NCI-H522; read-out: TGI): > 100 µM | GI50 (NCI-H522; read-out: pGI50 (converted)): 4.68 µM | CC50 (NCI-H522; [15]): > 100 µM | TGI (NCI-H522; read-out: pTGI (converted)): > 100 µM | GI50 (COLO 205; read-out: GI50): 2.22 µM | CC50 (COLO 205; [14]): > 100 µM | TGI (COLO 205; read-out: TGI): > 100 µM | GI50 (COLO 205; read-out: pGI50 (converted)): 22.4 µM | CC50 (COLO 205; [15]): > 100 µM | TGI (COLO 205; read-out: pTGI (converted)): > 100 µM | GI50 (SF-268 [1]; read-out: GI50): > 100 µM | CC50 (SF-268 [1]; [14]): > 100 µM | TGI (SF-268 [1]; read-out: TGI): > 100 µM | GI50 (SF-268 [1]; read-out: pGI50 (converted)): > 100 µM | CC50 (SF-268 [1]; [15]): > 100 µM | TGI (SF-268 [1]; read-out: pTGI (converted)): > 100 µM | IC50 (UACC-62 [2]): 9.1 µM | GI50 (UACC-62 [2]; read-out: GI50): 9.1 µM | CC50 (UACC-62 [2]; [14]): > 100 µM | TGI (UACC-62 [2]; read-out: TGI): > 100 µM | GI50 (UACC-62 [2]; read-out: pGI50 (converted)): 9.12 µM | CC50 (UACC-62 [2]; [15]): > 100 µM | TGI (UACC-62 [2]; read-out: pTGI (converted)): > 100 µM | GI50 (OVCAR-4 [3]; read-out: GI50): 3.97 µM | CC50 (OVCAR-4 [3]; [14]): > 100 µM | TGI (OVCAR-4 [3]; read-out: TGI): > 100 µM | GI50 (OVCAR-4 [3]; read-out: pGI50 (converted)): 39.8 µM | CC50 (OVCAR-4 [3]; [15]): > 100 µM | TGI (OVCAR-4 [3]; read-out: pTGI (converted)): > 100 µM | GI50 (OVCAR-5 [4]; read-out: GI50): 3.25 µM | CC50 (OVCAR-5 [4]; [14]): > 100 µM | TGI (OVCAR-5 [4]; read-out: TGI): > 100 µM | GI50 (OVCAR-5 [4]; read-out: pGI50 (converted)): 32.4 µM | CC50 (OVCAR-5 [4]; [15]): > 100 µM | TGI (OVCAR-5 [4]; read-out: pTGI (converted)): > 100 µM | growth at 0.01 µM (CCRF-CEM [5]): 96% | growth at 0.01 µM (M14): 97% | growth at 0.01 µM (UACC-62 [6]): 95% | growth at 0.01 µM (PC-3): 97% | growth at 0.01 µM (BT-549): 104% | growth at 0.1 µM (RPMI-8226): 107% | growth at 0.1 µM (U-251 [7]): 95% | growth at 0.1 µM (LOX IMVI): 95% | growth at 0.1 µM (Malme-3M): 85% | growth at 0.1 µM (SK-MEL-2): 83% | growth at 0.1 µM (OVCAR-4 [8]): 103% | growth at 1 µM (KM12): 52% | growth at 1 µM (IGROV-1): 104% | growth at 1 µM (OVCAR-8): 56% | growth at 100 µM (CCRF-CEM [9]): 18% | growth at 100 µM (HCT-116): 25% | growth at 100 µM (SF-268 [10]): 53% | growth at 100 µM (SNB-19): 60% | growth at 100 µM (U-251 [11]): 3% | growth at 100 µM (SK-MEL-28): 19% | growth at 100 µM (UACC-62 [12]): 10% | growth at 100 µM (OVCAR-5 [13]): 38%
